Experiments:
acetylcholinesterase = biological target: T1, acetylcholinesterase (Homo sapiens, UniProt P22303); test: Inhibition of acetylcholinesterase (AChE) activity of lysed human red blood cells (Test Method 1); assay type: biochemical; conditions: 60 min preincubation
T1 construct: The supernatant (lysed RBC's) was stored frozen; from tissue; host or cells: lysed human red blood cells (supernatant of hypotonic lysis)
Protocol: (§1) The following method was used to determine the relative inhibition of pseudocholinesterase and acetylcholinesterase by compounds of the present invention.
Lysed Red Blood Cells (RBC's) (Source of Acetylcholinesterase Enzyme)
Human blood which was collected in EDTA treated tubes was centrifuged at 1500×g for 10 min. at 4° C. One volume of chilled 0.9% saline solution was gently mixed with one volume of packed RBC's. One volume of this suspension was then washed three times with ten volumes of chilled 0.9% saline solution (4° C.). Each wash was centrifuged at 1500×g for 10 min. at 4° C. and supernatant was discarded. After the last wash the supernatant was replaced with deionized, distilled water (treated by Milli-Q apparatus, Millipore Corp., Bedford, MA) (4° C.). After 15 min. at 4° C. the suspension was centrifuged at 1500×g for 10 min. at 4° C. The supernatant (lysed RBC's) was stored frozen at -20° C. until use.
(§2) The buffer/chromogen solution was 0.25 mM 5,5'-dithiobis-[2-nitrobenzoic acid] (chromogen), 50 mM phosphate buffer, pH 7.2. In making up the buffer/chromogen solution and to keep it as colorless as possible, the phosphate buffer was first adjusted to pH 7.1 with NaOH; the chromogen was then added and dissolved; the pH was adjusted to 7.2; and the final volume was adjusted with addition of Milli-Q water. 5,5'-dithiobis-(2-nitrobenzoic acid) was obtained from Sigma Chemicals, St. Louis, MO.
(§3) The substrate solution for the pseudocholinesterase assay was 156 mM S-butyrylthiocholine iodide, and the substrate solution for the acetylcholinesterase assay was 156 mM S-acetylthiocholine iodide. Both substrate compounds were obtained from Sigma Chemicals.
(§4) Test Compound Stock Solutions
(§5) Solutions of all test compounds were made up at 2 μM, 20 μM, and 200 μM concentrations (in 0.9% saline solution) except as noted where lower concentrations were necessary because of decreased solubility of the compound in saline solution.
Acetylcholinesterase (AChE) Assay
The acetylcholinesterase assay was performed identically to the pseudocholinesterase assay with the following exceptions. The concentrations of the stock solutions of test compounds were 20 μM and 200 μM, instead of 2 μM and 20 μM, and the substrate solution was 156 mM S-acetylthiocholine iodide instead of S-butyrylthiocholine iodide. The lysed RBC's/test compound solution was incubated for 0 and 60 minutes instead of 0 and 30 minutes before being added to the cuvette containing the buffer/chromogen/substrate solution. From a plot of net absorbance versus time there was an initial period before the curve reached a steady linear rate. From this linear portion of the curve a rate of absorbance change per minute was calculated.
(§6) Each compound was tested for its ability to inhibit plasma pseudocholinesterase activity and acetylcholinesterase activity. Because of variation in the time points in the linear portion of the curve, inhibition values below 10-15% and higher than 85-90% are nearly indistinguishable from 0% and 100%, respectively.

pseudocholinesterase = biological target: T2, pseudocholinesterase (Homo sapiens, UniProt P06276); test: Inhibition of human plasma pseudocholinesterase (PChE) activity (Test Method 1); assay type: biochemical; conditions: 30 min preincubation
T2 construct: a 100 μl aliquot of human plasma; from tissue; host or cells: human plasma (EDTA blood, stored frozen)
Protocol: as §1
Plasma (Source of Pseudocholinesterase Enzyme)
Human Plasma was obtained from blood which was collected in ethylenediaminetetraacetic acid (EDTA) treated tubes. Collected plasma was stored frozen at -20° C. until use.
as §2, §3, §4, §5
Pseudocholinesterase (PChE) Assay
In three separate tubes, a 100 μl aliquot of either 0.9% saline solution, 2 μM test compound solution, or 20 μM test compound solution was mixed with a 100 μl aliquot of human plasma, and the tubes were placed in a 35° C. water bath. Four cuvettes, each containing 3 ml buffer/chromogen solution mixed with 100 μl substrate solution (156 mM S-butyrylthiocholine iodide), had been placed in a heated cuvette holder (35° C.) in a Beckman DU-8B Spectrophotometer (Beckman Instruments). After the temperature of the buffer/chromogen/substrate solution in the cuvette had equilibrated for about 10 minutes, and after 0 or 30 minutes incubation of the plasma/test compound solution, a 25 μl aliquot of the plasma/test compound solutions was added to the corresponding cuvettes numbered 2-4. Cuvette #1 remained a blank. After mixing, the net absorbance of each cuvette was determined at 405 nm every 35 seconds for ten readings. From a plot of net absorbance versus time, the initial linear portion of the curve was determined, and a rate of absorbance change per minute was calculated. The positive control (100% PChE activity) was the plasma/saline solution.
as §6

T2 sequence (P06276 29-602): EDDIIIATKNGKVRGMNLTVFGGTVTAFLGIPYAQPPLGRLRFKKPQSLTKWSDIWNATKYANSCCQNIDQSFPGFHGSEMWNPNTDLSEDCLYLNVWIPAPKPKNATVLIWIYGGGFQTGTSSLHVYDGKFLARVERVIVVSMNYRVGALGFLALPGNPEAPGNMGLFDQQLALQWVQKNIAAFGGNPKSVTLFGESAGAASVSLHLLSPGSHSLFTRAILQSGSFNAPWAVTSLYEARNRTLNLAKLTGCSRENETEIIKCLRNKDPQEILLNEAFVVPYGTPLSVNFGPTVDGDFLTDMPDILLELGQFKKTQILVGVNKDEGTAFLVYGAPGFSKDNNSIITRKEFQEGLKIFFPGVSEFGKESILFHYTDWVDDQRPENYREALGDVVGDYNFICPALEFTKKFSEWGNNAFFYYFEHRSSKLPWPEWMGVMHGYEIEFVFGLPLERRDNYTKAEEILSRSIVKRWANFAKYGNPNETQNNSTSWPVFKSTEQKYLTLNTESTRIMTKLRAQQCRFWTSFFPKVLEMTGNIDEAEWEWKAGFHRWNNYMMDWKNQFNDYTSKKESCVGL
T1 sequence (P22303 other isoform, or with tags, fused parts or gaps): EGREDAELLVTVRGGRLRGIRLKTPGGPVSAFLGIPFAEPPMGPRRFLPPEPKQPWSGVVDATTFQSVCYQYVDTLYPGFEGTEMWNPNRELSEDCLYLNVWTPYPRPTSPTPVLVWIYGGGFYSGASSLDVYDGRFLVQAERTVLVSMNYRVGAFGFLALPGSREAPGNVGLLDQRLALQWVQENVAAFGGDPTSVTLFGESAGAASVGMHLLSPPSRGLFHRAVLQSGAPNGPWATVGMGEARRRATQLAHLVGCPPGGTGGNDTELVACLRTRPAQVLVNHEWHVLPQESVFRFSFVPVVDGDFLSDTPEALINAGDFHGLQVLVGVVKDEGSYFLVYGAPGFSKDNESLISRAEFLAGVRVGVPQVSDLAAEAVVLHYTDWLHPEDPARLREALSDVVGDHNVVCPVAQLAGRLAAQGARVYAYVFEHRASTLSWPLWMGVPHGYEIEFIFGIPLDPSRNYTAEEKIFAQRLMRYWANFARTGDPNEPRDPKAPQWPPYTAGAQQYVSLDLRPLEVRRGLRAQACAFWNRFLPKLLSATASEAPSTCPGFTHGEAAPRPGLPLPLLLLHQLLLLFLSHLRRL

SMILES	inhibition at 10 µM (acetylcholinesterase) [%]	inhibition at 100 µM (acetylcholinesterase) [%]	inhibition at 1 µM (pseudocholinesterase) [%]	inhibition at 10 µM (pseudocholinesterase; 10 μM) [%]	other results
NP(N)(=O)NC(=O)c1cccc(Oc2ccccc2)c1 [Test Compound 19]	15.8	64.2	63.7	98.3	
NP(N)(=O)NC(=O)c1cccc([N+](=O)[O-])c1 [Test Compound 7]	23.9	86.6	65.6	98.9	
Cc1ccc(C(=O)NP(N)(N)=O)cc1 [Test Compound 9]	9.6	46	73.7	98.1	
NP(N)(=O)NC(=O)c1ccco1 [Test Compound 26]	7.7	73	91	98.7	
NP(N)(=O)NC(=O)c1ccc2ccccc2c1 [Test Compound 17]					inhibition at 5 µM (acetylcholinesterase; 5 μM (footnote a)): 16%; inhibition at 50 µM (acetylcholinesterase; 50 μM (footnote a)): 87.2%; inhibition at 0.5 µM (pseudocholinesterase; 0.5 μM (footnote a)): 27.4%; inhibition at 5 µM (pseudocholinesterase; 5.0 μM (footnote a)): 95.1%
Nc1ccc(S(=O)(=O)Nc2cccc(C(=O)NP(N)(N)=O)c2)cc1 [Test Compound 25]	62.2	88.5	97.2	99	
NP(N)(=O)NC(=O)c1ccccc1F [Test Compound 15]	14.7	82.1	97.4	99.3	
Cc1ccccc1C(=O)NP(N)(N)=O [Test Compound 10]	8.6	44.5	21.4	89.2	
CC(C)(C)c1ccc(C(=O)NP(N)(N)=O)cc1 [Test Compound 16]	3.1	38.7	46.3	97.9	
COc1ccc(C(=O)NP(N)(N)=O)cc1 [Test Compound 8]	3	34.2	83.4	96.3	
NP(N)(=O)NC(=O)C=Cc1ccccc1 [Test Compound 23]	6.6	54.8	11.5	73.2	
NP(N)(=O)NC(=O)c1ccccc1 [Test Compound 1]	4.1	37.3	92.7	99.1	
NP(N)(=O)NC(=O)c1ccc(-c2ccccc2)cc1 [Test Compound 24]					inhibition at 2.5 µM (acetylcholinesterase; 2.5 μM (footnote b)): -3.7%; inhibition at 25 µM (acetylcholinesterase; 25 μM (footnote b)): 34.8%; inhibition at 0.25 µM (pseudocholinesterase; 0.25 μM (footnote b)): 5.3%; inhibition at 2.5 µM (pseudocholinesterase; 2.5 μM (footnote b)): 66.6%
CS(=O)(=O)c1ccc(C(=O)NP(N)(N)=O)cc1 [Test Compound 20, N-(diaminophosphinyl)-4-(methylsulfonyl)benzamide]	20.5	86.4	92.9	98.5	
Nc1ccc(C(=O)NP(N)(N)=O)cc1 [Test Compound 5]	1.8	32.1	57.7	98.2	
CC(C)NP(N)(=O)NC(=O)c1ccc(F)cc1 (stereo not drawn) [Test Compound 27, N-[amino-(1-methylethylamino)phosphinyl]-4-fluorobenzamide]					inhibition at 50 µM (acetylcholinesterase; 50 μM (footnote c)): 5.8%; inhibition at 500 µM (acetylcholinesterase; 500 μM (footnote c)): 32.2%; inhibition at 10 µM (pseudocholinesterase; 10 μM (footnote c)): 8.7%; inhibition at 100 µM (pseudocholinesterase; 100 μM (footnote c)): 43.3%
NP(N)(=O)NC(=O)c1ccc([N+](=O)[O-])cc1 [Test Compound 3]	64.3	86.9	90.4	99	
N#Cc1ccc(C(=O)NP(N)(N)=O)cc1 [Test Compound 12]	34.4	85.5	97.4	98.8	
NP(N)(=O)NC(=O)Cc1ccccc1 [Test Compound 18]	17.1	85.2	10.7	61.3	
NP(N)(=O)NC(=O)c1cccnc1 [Test Compound 2]	-1.9	70.7	84.1	97.6	
NP(N)(=O)NC(=O)c1ccccc1Cl [Test Compound 11]	32.1	87.3	49.5	98.5	
CCCCOc1ccc(C(=O)NP(N)(N)=O)cc1 [Test Compound 22]	12.6	57.4	28.8	94.9	
NP(N)(=O)NC(=O)c1cccc(F)c1 [Test Compound 13]	-4	41.3	80.2	98.8	
NP(N)(=O)NC(=O)c1ccc(Cl)cc1 [Test Compound 6]	5.4	86.5	87.7	98.7	
NP(N)(=O)NC(=O)c1cccc(C(F)(F)F)c1 [Test Compound 14]	25.7	85.9	25	94.1	
NP(N)(=O)NC(=O)c1c(F)cccc1F [Test Compound 21]	51.1	93.7	74.4	98.7	
NP(N)(=O)NC(=O)c1ccc([N+](=O)[O-])o1 [Test Compound 28]	46.9	93.1	21	90.8	

From US4800194A, “Acylphosphorotriamides useful as lipid-altering agents” (priority 1986, dated 1989)
